Assay results reported in ChEMBL document CHEMBL1201862, “PubChem BioAssay data set” (2004).
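Five concentrations, 48 hours, 96-well plates. GI50 marks 50% less growth.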 Calls of active or inactive are those of the source. Rule as the data show it: active = GI50 up to about 1.1 µM and inactive = higher.

What was measured:
Test in all cases: inhibition of tumour cell growth, NCI panel, 48 h
[1] = tested on: DLD-1
[2] = tested on: HOP-18
[3] = tested on: KM-20L2
[4] = tested on: LXFL 529
[5] = tested on: SNB-78
[6] = tested on: DMS-114
[7] = tested on: DMS-273
[8] = tested on: XF498
[9] = tested on: RXF 631

Compound	GI50 [1]	GI50 [2]	GI50 [3]	GI50 [4]	GI50 [5]	GI50 [6]	GI50 [7]	GI50 [8]	GI50 [9]
CC1=CC(N2C(=O)C(C)=CC2O)NC1=O (stereo not drawn)	> 100 µM (inactive)	< 0.01 µM (active)	> 100 µM (inactive)	> 100 µM (inactive)	> 100 µM (inactive)				
CN1c2ccccc2N(C(=O)c2ccc(Cl)cc2)C(CC(=O)O)c2cccn21 (stereo not drawn)	> 100 µM (inactive)		> 100 µM (inactive)	> 100 µM (inactive)	> 100 µM (inactive)	> 100 µM (inactive)	> 100 µM (inactive)	> 100 µM (inactive)	
O=c1nc(/C=C/c2ccccc2Cl)cc2n1CCN2CCO	> 100 µM (inactive)			55.1 µM (inactive)		24.8 µM (inactive)			
CCC(=O)C(C)C(=O)C(=O)C(=O)OC (stereo not drawn)	> 100 µM (inactive)	> 100 µM (inactive)	> 100 µM (inactive)	> 100 µM (inactive)	> 100 µM (inactive)	> 82.8 µM (inactive)	> 100 µM (inactive)	> 100 µM (inactive)	> 100 µM (inactive)
COc1nc2c(nc(N)n2C2OCC(O)C(O)C2O)c(=O)n1C (stereo not drawn)	> 100 µM (inactive)	> 100 µM (inactive)	> 100 µM (inactive)	> 100 µM (inactive)	> 100 µM (inactive)	> 100 µM (inactive)		41.8 µM (inactive)	
CCCOc1ccc(/C(Cl)=C(\C=O)c2ccc(OC)c(OC)c2)cc1OCCC	5.71 µM (inactive)	> 100 µM (inactive)	89.7 µM (inactive)	5.74 µM (inactive)	6.07 µM (inactive)	3.07 µM (inactive)	3.72 µM (inactive)	6.93 µM (inactive)	
COC1C(OC(=O)/C=C/C=C/C=C/C=C/C(=O)O)CCC2(CO2)C1C1(C)OC1CC=C(C)C (stereo not drawn)	26.7 µM (inactive)	23.4 µM (inactive)	32.1 µM (inactive)		51.8 µM (inactive)	19.9 µM (inactive)	32.2 µM (inactive)	30.8 µM (inactive)	
COC(=O)CCSC(=O)Nc1ccc(/N=N/c2ccccc2)cc1	52.5 µM (inactive)	> 100 µM (inactive)	22.7 µM (inactive)	36.6 µM (inactive)	> 100 µM (inactive)	53.7 µM (inactive)	62.7 µM (inactive)	37.5 µM (inactive)	67.3 µM (inactive)
Brc1ccc2ns[s+]c2c1		> 47 µM (inactive)	0.933 µM (active)	0.404 µM (active)	> 31.6 µM (inactive)	3.14 µM (inactive)	1.95 µM (inactive)	> 100 µM (inactive)	5.06 µM (inactive)
CC1=C(N2CC2)C(=O)C(C)=C(N2CC2)C1=O	0.21 µM (active)	0.451 µM (active)	0.178 µM (active)	0.2 µM (active)	0.836 µM (active)	0.129 µM (active)	0.0692 µM (active)	0.132 µM (active)	
Cc1cc(CC(=O)NCCO)n(CCO)c(=O)c1	> 100 µM (inactive)	> 100 µM (inactive)		> 100 µM (inactive)	> 100 µM (inactive)	> 100 µM (inactive)	> 100 µM (inactive)	> 100 µM (inactive)	> 100 µM (inactive)
Cn1c(=O)nc2n(-c3ccc(F)c(F)c3)c3ccccc3nc-2c1=O	16 µM (inactive)	27.5 µM (inactive)	4.86 µM (inactive)	21.3 µM (inactive)	19.3 µM (inactive)	4.33 µM (inactive)	12.1 µM (inactive)	21.7 µM (inactive)	16.4 µM (inactive)
